Measured values as given in patent publication US9029414B2, “Triterpenoid compounds and methods of use thereof” (Biotechnology Research Corporation, priority 2008, dated 2015).

What was measured:
[1] = system: hippocampal neurons; experiment: Hippocampal neuron survival assay against NMDA excitotoxicity (LDH); format: cell-based, Sprague-Dawley rats; settings: 30 μM 24 hrs, NMDA 10-200 μM 20 min
Description: Hippocampal neurons/cortical neurons were prepared from embryonic day 18 Sprague-Dawley rats. After the cortices had been removed from the brain, isolated cells were plated onto Poly d-Lysine (PDL) (P0899, Sigma)-coated 48 well plates (150687, NUNC) at a density of 2×10^5 cell per well using Neurobasal Medium (NB) (21103-049, Gibco) with B27 supplement (17504-044, Gibco), penicillin/streptomycin (15140, Gibco) and 1 mM L-glutamine (25030, Gibco). The cell culture was incubated at 37° C. in a humidified atmosphere of 5% CO2 in air. Medium was changed to growth medium (Neurobasal Medium with penicillin/streptomycin and B27 supplement) after 3 hours. Half medium was changed with growth medium every 2-3 days to maintain the cells until day 10 in vitro (DIV 10). Serial dilutions of samples were prepared in growth medium and DMSO was used as vehicle control. For pre-treating assay, half of the medium was removed from wells, and equal amount of diluted samples were replaced. Cells were then incubated for 2 hours at 37° C. in a humidified atmosphere of 5% CO2 in air. […] Afterwards, cells were incubated in growth medium for 18-24 hours and detected with Cytotoxicity Detection Kit (1644793, Roche).
Hippocampal neurons were treated with DA021 and subsequently subjected to varying concentrations of NMDA. […] LDH release into the medium was then measured.

[2] = target: DP receptor (Homo sapiens, UniProt Q13258); experiment: Radioligand competition binding assay, DP; settings: target PGD, compound at 10 μM in duplicate, read-out: % inhibition of control specific binding
DP receptor, sequence (Q13258 whole entry): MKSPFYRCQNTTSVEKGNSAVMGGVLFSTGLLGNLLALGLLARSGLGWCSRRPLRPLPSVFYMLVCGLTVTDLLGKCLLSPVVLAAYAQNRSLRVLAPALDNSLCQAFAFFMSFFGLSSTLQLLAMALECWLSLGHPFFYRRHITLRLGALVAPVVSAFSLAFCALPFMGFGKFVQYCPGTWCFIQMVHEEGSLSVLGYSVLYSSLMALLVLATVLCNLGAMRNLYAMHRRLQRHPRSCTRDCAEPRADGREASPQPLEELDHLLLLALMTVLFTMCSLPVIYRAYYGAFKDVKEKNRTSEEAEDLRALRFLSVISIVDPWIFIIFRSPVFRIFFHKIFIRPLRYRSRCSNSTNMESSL
Description: To determine the targets of DA compounds, the compound was assessed in binding assays for the family of prostanoid receptors. Both compounds were tested at a single concentration (10 μM) in duplicate. DA001 and DA021 inhibit the ligand binding of prostaglandin E2 receptors EP1, EP2 and EP4 and moderately to prostaglandin (PGF) to its receptor (FP), but not prostaglandin I (PGI2), thromoboxane A and prostaglandin D2 to their receptors.

[3] = target: human MC1 receptor (Homo sapiens, UniProt Q01726); experiment: Cellular receptor functional assay (cAMP), MC1; format: cell-based
human MC1 receptor, sequence (Q01726 whole entry): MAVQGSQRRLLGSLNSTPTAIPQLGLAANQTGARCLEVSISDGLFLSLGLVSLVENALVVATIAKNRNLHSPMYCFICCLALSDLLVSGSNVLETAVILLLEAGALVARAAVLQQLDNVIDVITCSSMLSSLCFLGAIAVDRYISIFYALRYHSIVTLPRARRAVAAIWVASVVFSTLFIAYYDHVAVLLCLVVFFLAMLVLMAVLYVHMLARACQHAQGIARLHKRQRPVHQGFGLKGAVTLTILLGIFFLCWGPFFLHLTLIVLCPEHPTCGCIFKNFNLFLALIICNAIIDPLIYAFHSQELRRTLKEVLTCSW
Description: DA001 inhibits ligand binding to MC1 and MC4 receptors. To determine whether the inhibitory effect is due to agonist or antagonist activity, DA001 was evaluated at 6 or 8 concentrations in cellular assays assessing receptor function. Upon ligand binding, the MC1 or MC4 receptor is activated which leads to an increase in intracellular cyclic AMP. […] DA001 alone is unable to induce cAMP increase (blue square dots). […] DA001 was further evaluated with MC2 receptor functional assay. Upon ligand binding, the MC2 receptor is activated which leads to an increase in intracellular cyclic AMP.

[4] = system: NGF, BDNF, NT-3 and NT-4 expression in cortical neurons; experiment: Neurotrophin gene expression (real-time PCR) in cortical neurons following NMDA treatment; format: cell-based; settings: 24 hrs pre-treatment, then NMDA 20 μM 20 min; vs DMSO+NMDA
Description: Cortical neurons were incubated with DA001 or the DMSO control for 24 hrs, followed by treatment with NMDA (20 μM) or water for 20 min. Gene expression was normalized against the house-keeping gene, hypoxanthine phosphoribosyltransferase 1 (HPRT1) and glyceraldehyde 3-phosphate dehydrogenase (GAPDH) and compared to the control (DMSO) with NMDA treatment. Relative changes in gene expression induced by DA001+NMDA was compared with DMSO+NMDA.
Cortical neurons of 11 DIV-12 DIV were pre-incubated with DA001 or DMSO for 24 hours. Cells were washed in Locke's medium without magnesium for 15 min, followed by the treatment of NMDA (20 μM) or water for 20 min. Neurons were incubated with normal growth medium and total RNA were extracted at different time intervals after or without NMDA treatment. Total RNA was extracted using RNeasy Mini kit (Qiagen) according to the manufacturer's protocol, and was reverse-transcribed into single-stranded cDNA with SuperScript II Reverse Transcriptase (Invitrogen) and oligo-dT primers. Real-time Quantitative PCR was performed using Power SYBR Green PCR Master Mix (Applied Biosystems) on the Mx3000P Real-Time PCR System (Stratagene). Thermal cycling was initiated with a 10-min denaturation step at 95° C., followed by 40 cycles of 95° C. for 30 sec, 60° C. for 1 min and 72° C. for 30 sec. The final product was subjected to a Meltcurve detection at the end of the reaction. Regulation of the gene expression was normalized against home gene, hypoxanthine phosphoribosyltransferase 1 (HPRT1) and glyceraldehyde 3-phosphate dehydrogenase (GAPDH). Real-time PCR primers are as follows.
Cortical neurons were pre-treated with DA001 after which the cells were subjected to NMDA insult. The expression of neurotrophins was measured at three different time intervals. DA001 induced NGF, BDNF and NT-3 expression but not NT-4 under the same conditions. FIG. 3 illustrates that cortical neurons were incubated with DA001 or the DMSO control for 24 hrs, followed by treatment with NMDA (20 μM) or water for 20 min. […]

Structure (SMILES) | protection from NMDA-induced excitotoxicity (LDH release) [1] | inhibition at 10 µM [2] [%] | Kb ([3]; antagonist effect at human MC1 receptor) [µM] | IC50 ([3]; inhibition of cAMP increase by NDP-α-MSH, cells over-expressing MC1, read-out: IC50, antagonist effect) [µM] | BDNF expression [4] | NGF expression [4] | NT-3 expression [4]
C=C(C)[C@@H]1CC[C@]2(/C=N/O)CC[C@]3(C)C(CCC4[C@@]5(C)CCC(=O)[C@@](C)(CO)[C@@H]5CC[C@]43C)C12 (stereo partly shown) [DA021] | protects neurons against differing concentrations of NDMA | 0 | – | – | – | – | –
C=C(C)[C@@H]1CC[C@]2(C(=O)O)CC[C@]3(C)C(CC[C@@H]4[C@@]5(C)CC[C@H](O[C@@H]6OC[C@H](O)[C@H](O)[C@H]6O[C@@H]6O[C@@H](C)[C@H](O)[C@@H](O)[C@H]6O)[C@@](C)(CO)[C@@H]5CC[C@]43C)[C@@H]12 (stereo partly drawn) [DA001, 3-O-[α-L-rhamnopyranosyl-(1→2)-α-L-arabinopyranosyl]-3,23-dihydroxy-20(29)-lupen-28-oic acid] | – | – | 5.3 | 50 | induced | induced | induced
